From US20260226001A1, “PROCESS FOR PREPARING AN N-GUANYLAMINO ACID” (Evonik Operations GmbH, priority 2023, published 2026)

Key:
[1] = aqueous medium; cited from earlier work
[2] = Storage of acidic, concentrated permeate in a fridge; GAA content determined by HPLC; type: physicochemical; details: for GAA content: acidic and concentrated permeate stored in a fridge
Experimental: After fermentation and inactivation of the fermentation broth, the pH of the broth was adjusted to 1.5 using 75% w/w of H2SO4 at a temperature of 50° C. The biomass was removed by means of ultrafiltration and the temperature of the broth was kept constant at 50° C. The resulting permeate was concentrated at 80° C. and used for the crystallization step. The permeate fed to the crystallization was adjusted to pH 8 using 25% w/w of NH4OH. The formed crystals were separated by means of a suction filter and dried.
A part of the acidic and concentrated permeate was stored aside in a fridge over a period of ca. 2 weeks. The GAA content in said permeate was regularly determined by means of HPLC.
Description of the HPLC Method:
• 2.3 g ammonium dihydrogenphosphate (NH4H2PO4) and • 2.6 g di-ammonium hydrogenphosphate ((NH4)2HPO4) • dissolved in 2 L purified water
2.3 g ammonium dihydrogenphosphate (NH4H2PO4) and • 2.6 g di-ammonium hydrogenphosphate ((NH4)2HPO4) • dissolved in 1 L purified water and mixed with 1 L acetonitrile
The following gradient was used in the HPLC method: […]

## N=C(N)NCC(=O)O [GAA, guanidinoacetic acid]
[1]
  pKa: approximately 2.9
  pKb: approximately 10.91
[2]; 1 Apr. 2022
  GAA content: 120.9 g/kg
[2]; 7 Apr. 2022
  GAA content: 118.5 g/kg
[2]; 12 Apr. 2022
  GAA content: 119.9 g/kg
[2]; 13 Apr. 2022
  GAA content: 119.3 g/kg
[2]; fridge, over the 2-week period, HPLC
  degradation of the GAA in the acidic and concentrated permeate: no degradation
